According to PubChem BioAssay (NCI):
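Tested at 5 concentrations; 48 h exposure; 96-well plates; endpoints linearly interpolated, else capped at highest concentration. Abbreviation: GI50, concentration required for 50% inhibition of growth. At the TGI there is no net growth.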

Tests used:
Assay in all cases: NCI tumour cell line growth inhibition, 48 h
HL-60(TB) leukemia = tested on: HL-60(TB) leukemia
M14 melanoma = tested on: M14 melanoma
SK-MEL-28 melanoma = tested on: SK-MEL-28 melanoma
HT29 colon = tested on: HT29 colon
HCT-15 colon = tested on: HCT-15 colon
EKVX NSCLC = tested on: EKVX NSCLC
ACHN renal = tested on: ACHN renal
UACC-257 melanoma = tested on: UACC-257 melanoma
HS 578T breast = tested on: HS 578T breast
RPMI-8226 leukemia = tested on: RPMI-8226 leukemia

| SMILES | TGI (HL-60(TB) leukemia) | TGI (M14 melanoma) | TGI (SK-MEL-28 melanoma) | TGI (HT29 colon) | TGI (HCT-15 colon) | TGI (EKVX NSCLC) | TGI (ACHN renal) | TGI (UACC-257 melanoma) | TGI (HS 578T breast) | GI50 (RPMI-8226 leukemia) | TGI (RPMI-8226 leukemia) | GI50 (HL-60(TB) leukemia) | GI50 (M14 melanoma) | GI50 (SK-MEL-28 melanoma) | GI50 (HT29 colon) | GI50 (HCT-15 colon) | GI50 (ACHN renal) | GI50 (UACC-257 melanoma) | GI50 (HS 578T breast) | GI50 (EKVX NSCLC) |
| --- | --- | --- | --- | --- | --- | --- | --- | --- | --- | --- | --- | --- | --- | --- | --- | --- | --- | --- | --- | --- |
| CCNCC(=O)Nc1ccc2c(c1)C(=O)c1ccc(NC(=O)CNCC)cc1C2=O | 8.81 µM | 12.5 µM | 19.2 µM | 9.87 µM | 8.29 µM | 20.5 µM | 9.15 µM | 18.6 µM | 22.1 µM | – | – | – | – | – | – | – | – | – | – | – |
| COc1cc(CSc2nc3ccc(Cl)cc3c(=O)n2Cc2ccccc2)cc(OC)c1OC | > 100 µM | > 100 µM | 43.9 µM | > 100 µM | > 100 µM | – | 34.2 µM | > 100 µM | 14.5 µM | 4.27 µM | > 100 µM | 4.11 µM | 4.26 µM | 3.05 µM | 3.32 µM | 1.46 µM | 4.23 µM | 8.47 µM | 1.63 µM | – |
| CCOC(=O)C1CC(=O)C=C2CCCCC21 (stereo not given) | > 100 µM | > 100 µM | > 100 µM | > 100 µM | > 100 µM | > 100 µM | > 100 µM | > 100 µM | – | – | > 100 µM | – | – | – | – | – | – | – | – | – |
| CCN1/C(=C/C(C)=C/c2sc3ccc4ccccc4c3[n+]2CC)Sc2ccc3ccccc3c21 | 2.68 µM | 0.58 µM | 0.329 µM | 0.233 µM | 0.744 µM | – | 0.614 µM | 0.0916 µM | – | < 0.0134 µM | 0.131 µM | 0.106 µM | 0.196 µM | 0.165 µM | 0.109 µM | 0.219 µM | 0.147 µM | 0.0115 µM | – | – |
| O=C(O)c1cnc2c(ccc3[nH]cccc32)c1=O | > 100 µM | > 100 µM | > 100 µM | > 100 µM | > 100 µM | > 100 µM | > 100 µM | – | – | – | – | – | – | – | – | – | – | – | – | – |
| COC(=O)c1c2c(c(C)[n+]([O-])c1C)C(=O)C(NCc1ccccc1)=CC2=O | – | 4.35 µM | 22.2 µM | 10.2 µM | 4.44 µM | 5.41 µM | 10.1 µM | 4.02 µM | 82.4 µM | 2.61 µM | 10.1 µM | – | 1.97 µM | 4.63 µM | 1.97 µM | 1.7 µM | 2.73 µM | 1.7 µM | 7 µM | 2.09 µM |
| CCCCCN(CCCCC)CCC[C@@H](C)[C@H]1CC[C@H]2[C@@H]3[C@H](OCCCN)C[C@@H]4C[C@H](OCCCN)CC[C@]4(C)[C@H]3C[C@H](OCCCN)[C@]12C | 5.81 µM | 22.5 µM | 12.5 µM | 15.3 µM | > 100 µM | – | 35 µM | 28.6 µM | – | 1.84 µM | 4.71 µM | 2.14 µM | 6.03 µM | 2.46 µM | 2.65 µM | 15.4 µM | 8.8 µM | 13.5 µM | – | – |
| COc1ccc(C)c2sc(N(Cc3cccnc3)C(=O)c3ccc(C#N)cc3)nc12 | > 100 µM | > 100 µM | – | > 100 µM | > 100 µM | – | > 100 µM | > 100 µM | > 100 µM | 26.1 µM | > 100 µM | 31.1 µM | 44.9 µM | – | 28.5 µM | 30.5 µM | 34.7 µM | 56 µM | 50.2 µM | – |
| COc1ccc(-c2cnc(-c3ccc(OC)cc3)n2-c2cc(OC)c(OC)c(OC)c2)cc1 | – | > 100 µM | 92 µM | > 100 µM | > 100 µM | > 100 µM | – | 85.9 µM | 64.2 µM | 25.7 µM | > 100 µM | – | 44.7 µM | 24.4 µM | 47.7 µM | 36 µM | – | 22.9 µM | 22.9 µM | 36.8 µM |
| N#Cc1c(N)nc2c(c1-c1ccc(Cl)cc1)COc1ccc(F)cc1-2 | 53.4 µM | 96.1 µM | – | > 100 µM | 84.7 µM | 63.3 µM | 52.1 µM | 90.8 µM | – | 18.7 µM | 41.2 µM | 26.5 µM | 29.8 µM | – | 39.4 µM | 24.1 µM | 15.9 µM | 29.4 µM | – | 22 µM |
| CCOC(=O)NC(=O)c1cn(CCSCCOC(=O)NCCCCCCNC(=O)OCCSCCn2cc(C(=O)NC(=O)OCC)c(=O)n(C)c2=O)c(=O)n(C)c1=O | 43 µM | – | > 100 µM | > 100 µM | > 100 µM | > 100 µM | > 100 µM | > 100 µM | – | – | 66.8 µM | – | – | – | – | – | – | – | – | – |
| O=CCCn1[nH]c(=O)ccc1=O | > 100 µM | > 100 µM | > 100 µM | > 100 µM | > 100 µM | > 100 µM | > 100 µM | > 100 µM | – | – | > 100 µM | – | – | – | – | – | – | – | – | – |
| Clc1ccc(-c2cnc3c(-c4ccnc(N5CCNCC5)c4)cnn3c2)cc1 | 3.26 µM | 3.46 µM | 3.2 µM | 2.53 µM | 5.18 µM | 3.5 µM | – | 3.82 µM | – | 1.86 µM | 4.05 µM | 1.25 µM | 2 µM | 1.79 µM | 1.24 µM | 2.7 µM | – | 2.08 µM | – | 1.83 µM |
| COc1ccc2c(n1)Sc1nc3ccccc3nc1N2 | – | > 100 µM | > 100 µM | > 100 µM | > 100 µM | 60.3 µM | > 100 µM | > 100 µM | > 100 µM | – | > 100 µM | – | – | – | – | – | – | – | – | – |
| O=S1Nc2cccc(C(F)(F)F)c2S1 (stereo not given) | 31.8 µM | > 100 µM | > 100 µM | > 100 µM | 43 µM | > 100 µM | > 100 µM | > 100 µM | – | – | > 100 µM | – | – | – | – | – | – | – | – | – |
| COc1ccc(C2(Cl)C(Cl)(C(F)(F)F)C2(Cl)C(F)(F)F)cc1 (stereo not given) | 54.9 µM | 24.2 µM | 29 µM | 27.8 µM | 29.6 µM | 31.6 µM | 30.4 µM | 26.5 µM | – | – | 34.8 µM | – | – | – | – | – | – | – | – | – |
| O/N=C1/CCCC/C1=C\c1ccc(Cl)c(Cl)c1 | 23 µM | 82.9 µM | > 100 µM | 39.9 µM | > 100 µM | > 100 µM | 71.8 µM | – | – | – | – | – | – | – | – | – | – | – | – | – |
| C[C@@H]1CC[C@@]2(C)OC(c3ccccc3)[C@H](CO)N2C1=O (stereo not given in full) | – | – | > 100 µM | > 100 µM | > 100 µM | > 100 µM | > 100 µM | > 100 µM | – | – | > 100 µM | – | – | – | – | – | – | – | – | – |
